In assay [1] the target is T1, RRM domain of hnRNP H (Homo sapiens, UniProt P31943).
T1 construct: HSQC spectra of RRM1/2 of hnRNP H; hexahistidine (cleaved yes); made in house; host or cells: Escherichia coli BL21(DE3), pET-28a(+)
T1 sequence (P31943 1-194 limits assumed): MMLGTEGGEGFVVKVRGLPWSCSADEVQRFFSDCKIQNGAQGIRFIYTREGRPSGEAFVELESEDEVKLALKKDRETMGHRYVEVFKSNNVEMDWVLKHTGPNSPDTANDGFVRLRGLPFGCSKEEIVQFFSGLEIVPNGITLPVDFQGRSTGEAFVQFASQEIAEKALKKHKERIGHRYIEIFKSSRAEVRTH
Briefly: 1H-15N HSQC NMR titration of hnRNP H RRM domain. Format: binding. Particulars: ratios 1:5 and 1:10. Here is the method: The coding sequence of the RRM domain of hnRNP H/F, or human Orc6 was inserted into the expression vector pET-28a(+) (Novagen). Protein was expressed in Escherichia coli BL21(DE3) at 37° C. for 5 hours. Cell lysates were subject to affinity purification with nickel-nitrilotriacetic acid resin (Qiagen) followed by cleavage of hexahistidine tag with Protease 3C enzyme. Products were further purified on a Superdex 75 column (GE Healthcare). For NMR studies, uniformly ^15N labeled protein was expressed and purified as described above, except for cells grown in M9 medium containing 100% ^15N enriched ammonium chloride (Cambridge Isotopes) and d-glucose.
Titration experiments were performed by recording a series of 2D ^15N-HSQC spectra on uniformly ^15N-labeled RRM domain (˜0.1 mM) in the presence of different amounts of DNA/RNA or compounds at 25° C. Protein samples and stock solutions of DNA/RNA were all prepared in 20 mM potassium phosphate buffer and 70 mM KCl, pH 7.0, 10% D2O. All compounds were dissolved in isotope-labeled d6-DMSO (Sigma-Aldrich) at about 50 mM concentration, working as stock solutions. To avoid chemical shift changes of protein samples resulted from d6-DMSO addition, 10 μL d6-DMSO was added into 500 μL of 0.1 mM protein solution in the NMR buffer (20 mM potassium phosphate buffer and 70 mM KCl, pH 7.0, 10% D2O) and then the 2D HSQC was recorded as a reference.
In this scenario, specific RNA-binding proteins (RBPs), like hnRNP H, are recruited by the RNA foci, resulting in RNA processing impairment and further cytotoxicity to the central nervous system^30,36,37. Therefore, we tested the binding possibility of cA with the RRM domain of hnRNP H by NMR titration. […] Intriguingly, the DNA (G4C2)4 (SEQ ID NO: 5) G4 was also shown a potent binding affinity to the RRM domain of hnRNP H (FIG. 4C).

In assay [2] the test system is Neuro2a cells transfected with DNA (G4C2)29. The assay is described as follows: Cell viability of Neuro2a cells transfected with DNA (G4C2)29 (C9orf72 ALS/FTD cell model). Format: cell-based. Conditions: for effect on cell viability of (G4C2)29-transfected Neuro2a cells: 1 μg/ml; for viability at 1 µg/mL: Mus musculus, N2a, read-out: cell viability in (G4C2)29-cells. Here is the method: Cytotoxicity of compounds was tested by MTT assay. Cells were grown in DMEM (Gibco) with 10% FBS and 1% penicillin-streptomycin at 37° C. with 5% CO2. In total, 5×10^3 cells were seeded in each well of 96-well plates and cultured for 24 hours. Then cells were treated with different concentrations of compounds dissolved in DMSO for another 24 hours. After incubating with 20 μl of MTT (5 mg/mL) for each well at 37° C. for another four hours, 100 μl of DMSO was added to dissolve formazan. Absorbance was measured using a Multiskan™ FC microplate photometer at 570 nm. IC50 data were analyzed with GraphPad Prism software.
DNA constructs were transfected to neuronal Neuro2a cell lines using Lipofectamine 2000 (Thermo Fisher Scientific, 11668019). 4 to 6 hours after transfection, fresh culture medium was used to replace the transfection medium, and cells were incubated for another 48 hours to allow recovery and construct expression.

In assay [3] the test system is DNA (G4C2)4 (SEQ ID NO: 5) G4. The assay is described as follows: 1D 1H-NMR titration of DNA (G4C2)4 G4. It counts as binding. Particulars: for binding affinity order according to NMR titration: DNA (G4C2)4 G-quadruplex and hnRNP H, FIGS. 3C-3E; for binding to DNA (G4C2)4 G4 by NMR titration: G4:compound ratio 1:1 to 1:10. As to the method:
Single […] were purchased from Integrated DNA Technologies (IDT) and Takara. Single-strand DNA/RNA sample at 100 μM was then annealed by heating up to 95° C. for 15 mins, and slowly cooled to room temperature in the annealing buffer (70 mM KCl, 20 mM potassium phosphate (pH 7.0)) for overnight. The final NMR samples contained 0.1 mM DNA or RNA in 70 mM KCl and 20 mM potassium phosphate buffer (pH 7.0).
The 1D ^1H-NMR spectra were performed at 25° C. All compounds were dissolved in isotope-labeled d6-DMSO (Sigma-Aldrich) at about 50 mM concentration, working as stock solutions. To avoid chemical shift changes of DNA/RNA G4 resulted from d6-DMSO addition, […] d6-DMSO was added into 500 μL of 0.1 mM DNA/RNA G4 solution in the NMR buffer (20 mM potassium phosphate buffer and 70 mM KCl, pH 7.0, 10% D2O) and then 1D ^1H-NMR spectrum was recorded as a reference. During NMR titration experiments of adding each compound into the DNA/RNA G4 solution, the maximal volume of 10 μL of each compound in d6-DMSO solution was regarded as a final data point.
We next confirmed the binding of cA and DNA (G4C2)4 (SEQ ID NO: 5) G4 by NMR titration experiments.

The target in assay [4] is T2, Tau-R3 fibrils (Homo sapiens, UniProt P10636).
T2 construct: Tau-R3 protein was synthesized and purchased from ChinaPeptides Co., Ltd; purchased ChinaPeptides Co., Ltd; host or cells: chemical synthesis
T2 sequence (P10636 623-653 limits assumed): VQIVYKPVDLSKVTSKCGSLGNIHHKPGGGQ
Briefly: TEM imaging of Tau-R3 fibrils. Format: biochemical. Particulars: cA 10 μg/ml, cB 5 μg/ml, cC 10 μg/ml. As to the method: Samples from ThT fluorescence experiments were directly applied to a 300-mesh carbon coating copper grid. 20 μL of aggregate samples were dispensed onto a sheet of parafilm, and a copper grid was placed onto the sample drop for 5 mins. The copper grid with samples was moved to water drop for 5 mins-washing, and then stained with 2% uranyl acetate for 5 mins. Images were captured using a transmission electron microscope (Thermo Scientific Talos L120C) at a magnification of 13500× and an acceleration voltage of 120 kV.
In the C9orf72 ALS/FTD, there is a strong genetic association between the microtubule-binding protein, tau and the G4C2 HRE. […] The co-expression of Tau and G4C2 repeats produces a synergistic deterioration of the neurodegeneration phenotype of ALS/FTD^46. Considering the tight correlation of Tau aggregation with the ALS/FTD pathogenesis, we tested our compounds in a non-cell-based Tau-R3 aggregation inhibition assay. […] Moreover, we conducted high magnification TEM imaging to characterize the morphological changes of Tau-R3 fibrils with cA, cB and cC treatments. […] Furthermore, the misfolding of tau protein into filaments in neurons of the central nervous system can be found in various neurodegenerative diseases, such as Alzheimer's disease et al. Therefore, the inhibition on tau aggregation represented a potential of cA and its derivatives in targeting multiple other neurodegenerative diseases more than ALS.

Entries after “also recorded” stand apart in the source; their conditions may differ. Where two headings read alike, the source gives them in different places.

Take `COc1c2c(c(O)c3c(=O)c4cccc(O[C@@H]5OC(C(=O)O)=C[C@H](O)[C@H]5O)c4oc13)-c1c(cc(CC(C)=O)c(C(=O)O)c1O)CC2` [cB, chrexanthomycin B]: the “binding to RRM domain of hnRNP H by NMR titration” value (“binding to RRM domain of hnRNP H” below) in assay [1] is listed as “much weaker bindings”. The “effect on cell viability of (G4C2)29-transfected Neuro2a cells” value (from here on “effect on cell viability”) in assay [2] is recorded as “made it worse; also recorded: even worse than the model group”. In addition, in assay [3], the “binding affinity order according to NMR titration” value (“binding affinity order according” for short) is recorded as “cC>cA>cB>cF” and the “binding to DNA (G4C2)4 G4 by NMR titration” value (shortened to “binding to DNA (G4C2)4 G4”) is listed as “proved to bind”. The “morphological change of Tau-R3 fibrils (TEM)” value (“morphological change” for short) in assay [4] was “broken into shorter and thinner fragments”.

As to `CC(=O)Cc1cc2c(c(O)c1C(=O)O)-c1c(c(O)c3oc4c(O[C@@H]5OC(C(=O)O)=C[C@H](O)[C@H]5O)cccc4c(=O)c3c1O)CC2` [cA, chrexanthomycin A], in assay [1], the “binding to RRM domain of hnRNP H” value is on record as “bound to the RRM domain of hnRNP H”. Also, in assay [2], the “effect on cell viability” value was “partially increased the cell viability”. In addition, the viability (usually a read-out of living cells in per cent, often relative to untreated cells) at 1 µg/mL in assay [2] (1 μg/mL, model group 20%) was 30%. For the same molecule, in assay [3], the “binding affinity order according” value is on record as “cC>cA>cB>cF” and the “binding to DNA (G4C2)4 G4” value is “apparent chemical shift changes”. The “morphological change” value in assay [4] is “broken into shorter and thinner fragments”.

In the case of `CC(=O)Cc1cc2c(c(O)c1C(=O)O)-c1c(c(O)c3oc4c(O[C@@H]5O[C@H](C(=O)O)[C@@H](O)[C@H](O)[C@H]5O)cccc4c(=O)c3c1O)CC2` [cC, chrexanthomycin C], the “binding to RRM domain of hnRNP H” value in assay [1] was “a little bit stronger than cA”. In assay [2], the “effect on cell viability” value is recorded as “partially increased the cell viability” and the viability at 1 µg/mL came out at 40%. Moreover, in assay [3], the “binding affinity order according” value was “cC>cA>cB>cF” and the “binding to DNA (G4C2)4 G4” value is “proved to bind”. Also, the “morphological change” value in assay [4] was “broken into shorter and thinner fragments”.
